Reference: patent publication US11020415B2, “Use of albiflorin in preparation of products for improving function of intestinal flora system” (priority 2016, dated 2021)

Experiments:
cannabinoid receptor CB2 = cannabinoid receptor CB2 (Homo sapiens, UniProt P34972); assay: Cannabinoid receptor CB2 activity (stated, no method); details: stated as finding of the invention's research; no data or method printed
[1] = system: intestinal flora in stressed rats; assay: High-throughput 16s metagenomic sequencing of intestinal flora composition in CUMS model rats (cluster analysis); assay type: in vivo, rat; details: albiflorin 7 days
Experimental: (§1) We further administered the stressed model rats an albiflorin treatment for 7 consecutive days at each dose of 7 mg/k& for each treatment. 7 days later, we used metabolomics and a 16sDNA high-throughput metagenomic sequencing technology to re-evaluate the function and composition of intestinal flora in the rats. […] This was consistent with the results of analysis of flora composition.
FIG. 5 is a graph showing the cluster analysis of intestinal flora composition correlation.

[2] = system: intestinal flora in stressed rats; assay: Targeted metabolomics of intestinal flora metabolism in chronic unpredictable mild stress (CUMS) model rats (PLS-DA, VIP analysis); assay type: in vivo, rat
Experimental: We established a chronic unpredictable mild stress (CUMS) model of rats, and used a new generation of targeted metabolomics method to study the metabolic function of intestinal flora in stressed rats.
as §1
As a positive drug, fluoxetine was continuously administered for 7 days at each dose of 10 mg/kg/d.

[3] = after 7 days of administration of albiflorin

Sequence of cannabinoid receptor CB2 (P34972 whole entry): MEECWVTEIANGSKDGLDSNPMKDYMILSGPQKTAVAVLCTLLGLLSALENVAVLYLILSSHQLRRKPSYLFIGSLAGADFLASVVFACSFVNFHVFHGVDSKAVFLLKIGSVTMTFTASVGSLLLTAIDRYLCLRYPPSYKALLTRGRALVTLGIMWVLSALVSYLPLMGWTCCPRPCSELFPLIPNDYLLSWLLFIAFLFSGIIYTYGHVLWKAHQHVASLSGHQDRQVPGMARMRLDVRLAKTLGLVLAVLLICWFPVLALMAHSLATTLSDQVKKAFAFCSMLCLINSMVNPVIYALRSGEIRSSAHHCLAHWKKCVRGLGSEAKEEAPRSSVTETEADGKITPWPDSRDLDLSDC

Compound	Action at cannabinoid receptor CB2 (cannabinoid receptor CB2)	Amount of probiotic firmicutes, especially lactic acid bacteria, compared with the stressed rat model group [1]	Intestinal flora composition versus blank group (Control), cluster analysis [1]	Amounts of cholic acid, amino acids and vitamins (intestinal flora metabolites) compared with the depression group [2, 3]	Overall metabolism of intestinal flora compared with the depression group (VIP analysis) [2, 3]	Metabolism of intestinal flora relative to the normal group (PLS-DA multiple comparative analysis of metabolomics data) ([2]; albiflorin 7 consecutive days, 7 mg/k&, FIG. 1)	Metabolism of rat intestinal flora relative to the normal state (multivariable PLS-DA analysis) ([2]; fluoxetine 7 days, 10 mg/kg/d, FIG. 6)
C[C@]12C[C@@H](O)[C@@H]3C[C@@]1(O[C@@H]1O[C@H](CO)[C@@H](O)[C@H](O)[C@H]1O)[C@@]3(COC(=O)c1ccccc1)C(=O)O2 [albiflorin]	agonist	significantly increased	no statistical difference (P>0.05)	increased	significantly improved	almost completely overlapped with the normal group	
CNCCC(Oc1ccc(C(F)(F)F)cc1)c1ccccc1 (stereo not shown) [fluoxetine, reference compound]							deviated the metabolism of rat intestinal flora more from the normal state
